From patent US20090280096A1, “PANCREATIC ENDOCRINE PROGENITOR CELLS DERIVED FROM PLURIPOTENT STEM CELLS” (priority 2008, published 2009)

Experiments:
[1] = system: pancreatic EBs induced by Pdx1 and Ngn3 (Tet-pdx1/ngn3 ES cells); experiment: C-peptide secretion assay (RIA) of EBs stimulated with secretagogues; type: cell-based, mouse; settings: floating EBs with Dox, SFD without N2 and RA, stimulated 1 hour in HKRB buffer; for response of C-peptide secretion to stimulation: glucose 20 mM, tolbutamide 100 μM; for stimulation of C-peptide secretion: KCl 30 mM, Forskolin 10 μM, IBMX 0.5 mM
Procedure: Tet-pdx1/ngn3 ES cells were cultured in SFD conditions. Pdx1 and Ngn3 expression was induced with (Dox+) or without (Dox−) Dox after day 4, and cells were harvested at the indicated time points. (A) CXCR4/c-kit^−/− or CXCR4/c-kit^+/+ cells were sorted in day 4 EBs by using a FACS sorter. Sorted cells were reaggregated and replated at day 6 on gelatin coated plates. EBs were harvested at day 9. Ins1 mRNA levels were quantified by real time PCR and normalized to the 18S mRNA levels. (B) N2 media was added to or omitted from the SFD media for days 0-14. B27, with or without retinoic acid (RA), was combined in SFD for days 0-4 and for day 4-14 (also +/−N2). Ins1 mRNA levels were quantified by real time PCR and normalized to the 18S mRNA levels. (C) Tet-pdx1/ngn3 ES cells were cultured in SFD condition without N2 and RA for 18 days. Cytoplasmic insulin was stained and analyzed by FACS. (D) Floating EBs were cultured in SFD without N2 and RA for 18 days, with or without Dox. EBs were incubated in SFD without N2 and RA for 24 hours and supernatants were harvested. C-peptide, glucagon and somatostatin were measured by RIA or EIA. (E) Floating EBs were cultured in SFD without N2 and RA for 19 days and then were unstimulated or stimulated with KCl (3 or 30 mM), glucose (20 mM), tolbutaminde (100 μM), Forskolin (10 μM) or IBMX (0.5 mM) in HKRB buffer for 1 hour. Supernatants were harvested and C-peptide was measured by RIA.
After culturing EBs for 17-18 days in SFD conditions without N2 and RA with or without Dox (1 μg/ml) as described above, the medium was changed to fresh SFD media containing 2 mM glutamine. The EBs were then incubated for 24 hours as indicated, and the conditioned medium was collected for assay. Concentrations of glucagon and somatostatin in the conditioned medium were measured using enzyme immunoassays (EIAs) specific to glucagon (Yanaihara) or somatostatin (Phoenix Pharmaceuticals) according the manufacturer's instructions. C-peptide was measured by radioimmunoassay (RIA) specific to C-peptide (Linco). For C-peptide secretion assay, day 18 EBs were washed with media were incubated in HEPES-balanced Krebs-Ringer bicarbonate (HKRB) buffer (20 mM HEPES, 103 mM NaCl, 4.8 mM KCl, 0.5 mM CaCl2, 1.2 mM MgSO4, 1.2 mM KH2PO4, 25 mM NaHCO3, 2 mM glucose, pH 7.4) with or without stimulations for 1 hour. C-peptide in the supernatant was measured by a specific RIA. Total protein amounts of EBs in each sample were evaluated by BCA assay and secretion levels for C-peptide, glucagons and somatostatin were adjusted by protein amount.
To evaluate pancreatic hormone secretion, pancreatic EBs were cultured in SFD without N2 and RA for 16-18 days and then EBs were incubated in fresh SFD media for 24 hours. The secretion of pancreatic hormones such as C-peptide, glucagon and somatostatin in the supernatant was evaluated by RIA or EIA. C-peptide, somatostatin and glucagons were not detected in EBs without Dox stimulation. […] Stimulation of C-peptide secretion by treating endocrine progenitor cells with different agents for one hour was also evaluated (FIG. 6E). C-peptide secretion increased around five fold by the addition of 30 mM potassium chloride (KCl). Forskolin and IBMX, which increase intracellular cAMP, also stimulated C-peptide secretion around 2 fold and 3 fold, respectively. No response to glucose or the inhibitors of KATP channel, glibenclamide and tolbutamide, was detected.

[2] = system: Ins1 mRNA in Tet-pdx1/ngn3 Ainv ES cell-derived EBs; experiment: Ins1 mRNA by real time PCR in EBs cultured in SFD conditions; type: cell-based, mouse; settings: BMP4 (50 ng/ml) for days 4-6 with Dox, EBs harvested at day 9
Procedure: Tet-pdx1/ngn3 ES cells were cultured in SFD conditions. Pdx1 and Ngn3 expression was induced with (Dox+) or without (Dox−) Dox after day 4 and cells were harvested at the indicated time points. (A, B) Ins1 mRNA levels were quantified by a real time PCR and normalized to the 18S mRNA levels. A. Day 4 EBs were trypsinized and reaggregated with (closed circles) or without BMP4 (open squares) for days 4-6. EBs were harvested at days 6 and 9. B. At day 6, EBs were replated on gelatin coated dishes and floating EBs were transferred to low-cluster dishes at day 7. Attached monolayer EBs (open bars) and floating EBs (closed bars) were harvested at day 9. (C, D) Floating EBs were cultured in SFD conditions with (closed circles) or without (open squares) Dox. Ins1 (C) or Ins2 (D) mRNA levels were quantified by a real time PCR and normalized to the 18S mRNA levels.
For a real time PCR, commercially available assay mixes (Applied Biosystems) for Ins1 (Mm01259683_g1), Ins2 (Mm0731595_gH) and 18S (Hs99999901_s1) were used to quantify mRNA levels, and PCR was performed using a Prism 7700 Sequence Detector (Applied Biosystems). […]
Tet-pdx1/ngn3 Ainv ES cells were cultured in SFD for 2 days and then activin was added for days 2-4 to induce endoderm differentiation. […] Without Dox treatment, Ins1 mRNA was not detected at day 6 or day 9. […]

Molecule | response of C-peptide secretion to stimulation [1] | stimulation of C-peptide secretion [1] | other results
CCCCNC(=O)NS(=O)(=O)c1ccc(C)cc1 [tolbutamide] | No response | – | –
C=C[C@@]1(C)CC(=O)[C@]2(O)[C@@]3(C)[C@@H](O)CCC(C)(C)[C@@H]3[C@H](O)[C@H](OC(C)=O)[C@@]2(C)O1 [Forskolin] | – | around 2 fold | –
CC(C)Cn1c(=O)n(C)c(=O)c2[nH]cnc21 [IBMX] | – | ~3 fold | –
[Cl-].[K+] [KCl, potassium chloride] | – | around five | –
COc1ccc(Cl)cc1C(=O)NCCc1ccc(S(=O)(=O)NC(=O)NC2CCCCC2)cc1 [glibenclamide] | No response | – | –
BMP4: growth factor BMP-4 (R&D Systems) added to SFD medium days 4-6 (protein, UniProt P12644 293-408, looked up) Bone morphogenetic protein 4: SPKHHSQRARKKNKNCRRHSLYVDFSDVGWNDWIVAPPGYQAFYCHGDCPFPLADHLNSTNHAIVQTLVNSVNSSIPKACCVPTELSAISMLYLDEYDKVVLKNYQEMVVEGCGCR | – | – | Ins1 mRNA level normalized to 18S mRNA [2]: 3.1 % of βTC6
